Consider 22 compounds from ChEMBL document CHEMBL4177658, “Benzo[c][1,2,5]thiadiazole derivatives: A new class of potent Src homology-2 domain containing protein tyrosine phosphatase-2 (SHP2) inhibitors” (Bioorg Med Chem Lett, 2017).

The structures appear in SMILES notation.

The target of experiment [1] is T1, Tyrosine-protein phosphatase non-receptor type 1 (Homo sapiens) (UniProt P18031).
T1 sequence (whole entry): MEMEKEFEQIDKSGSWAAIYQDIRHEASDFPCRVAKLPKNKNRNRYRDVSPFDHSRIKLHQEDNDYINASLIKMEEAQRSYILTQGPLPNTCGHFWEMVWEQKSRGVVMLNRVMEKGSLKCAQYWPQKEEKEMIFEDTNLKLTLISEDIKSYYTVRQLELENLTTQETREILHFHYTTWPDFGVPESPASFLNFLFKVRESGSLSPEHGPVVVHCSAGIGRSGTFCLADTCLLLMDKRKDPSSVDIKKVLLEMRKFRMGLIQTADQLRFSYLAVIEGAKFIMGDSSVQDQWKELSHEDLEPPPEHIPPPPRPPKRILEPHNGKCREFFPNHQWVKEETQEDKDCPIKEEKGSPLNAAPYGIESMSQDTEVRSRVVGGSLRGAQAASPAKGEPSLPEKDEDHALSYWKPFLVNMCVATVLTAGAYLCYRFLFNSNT
Nature of the experiment: Inhibition of GST-tagged PTP1B (unknown origin) at 20 ug/ml using pNPP as substrate measured for 3 mins by colorimetric assay.

Experiment [2] deals with T2, Tyrosine-protein phosphatase non-receptor type 11 (Homo sapiens) (UniProt Q06124).
T2 sequence (whole entry): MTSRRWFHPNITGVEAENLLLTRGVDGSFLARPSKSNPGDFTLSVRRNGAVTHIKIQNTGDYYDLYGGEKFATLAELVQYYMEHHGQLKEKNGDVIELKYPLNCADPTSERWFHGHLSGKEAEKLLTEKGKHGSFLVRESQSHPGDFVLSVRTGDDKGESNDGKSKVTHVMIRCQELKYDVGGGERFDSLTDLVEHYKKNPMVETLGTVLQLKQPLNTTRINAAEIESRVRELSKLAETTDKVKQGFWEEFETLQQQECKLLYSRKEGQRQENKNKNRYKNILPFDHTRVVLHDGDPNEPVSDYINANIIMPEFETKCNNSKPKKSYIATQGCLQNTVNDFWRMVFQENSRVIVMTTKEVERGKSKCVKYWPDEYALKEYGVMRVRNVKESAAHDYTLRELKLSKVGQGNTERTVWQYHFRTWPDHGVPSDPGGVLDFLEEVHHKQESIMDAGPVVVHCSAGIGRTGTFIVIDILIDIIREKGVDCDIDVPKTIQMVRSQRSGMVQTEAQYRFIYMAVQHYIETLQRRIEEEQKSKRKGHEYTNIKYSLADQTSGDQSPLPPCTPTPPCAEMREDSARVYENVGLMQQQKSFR
Nature of the experiment: Inhibition of SHP2 (unknown origin) at 20 ug/ml using 3-o-methylfluorescein phosphate as substrate by fluorescence assay.

Experiment [3] addresses T3, Tyrosine-protein phosphatase non-receptor type 11 (Homo sapiens, UniProt Q06124).
T3 sequence (Q06124 whole entry): T2 sequence (whole entry)
The experiment in a line: Inhibition of SHP2 (unknown origin) using 3-o-methylfluorescein phosphate as substrate by fluorescence assay.

The target in experiment [4] is T4, Tyrosine-protein phosphatase non-receptor type 1 (Homo sapiens, UniProt P18031).
T4 sequence (P18031 whole entry): T1 sequence (whole entry)
The experiment in a line: Inhibition of GST-tagged PTP1B (unknown origin) using pNPP as substrate measured for 3 mins by colorimetric assay.

Experiment [5] is filed under the species Homo sapiens. The experiment in a line: Selectivity index, ratio of IC50 for GST-tagged PTP1B (unknown origin) to iC50 for SHP2 (unknown origin).
Experiment [6] concerns the target T5, Tyrosine-protein phosphatase non-receptor type 2 (Homo sapiens) (UniProt P17706).
T5 sequence (whole entry): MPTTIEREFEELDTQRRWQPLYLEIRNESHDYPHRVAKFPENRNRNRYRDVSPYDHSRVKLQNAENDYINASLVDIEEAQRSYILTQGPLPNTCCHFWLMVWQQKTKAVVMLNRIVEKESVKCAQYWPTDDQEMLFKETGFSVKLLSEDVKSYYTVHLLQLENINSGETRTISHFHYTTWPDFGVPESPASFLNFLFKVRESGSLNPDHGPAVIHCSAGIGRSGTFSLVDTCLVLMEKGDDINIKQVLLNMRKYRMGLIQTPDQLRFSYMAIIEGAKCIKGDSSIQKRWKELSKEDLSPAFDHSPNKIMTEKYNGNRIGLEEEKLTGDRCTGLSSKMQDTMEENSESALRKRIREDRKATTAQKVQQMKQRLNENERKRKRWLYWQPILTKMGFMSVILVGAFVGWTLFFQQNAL
The experiment in a line: Inhibition of GST-tagged TCPTP (unknown origin) at 20 ug/ml using pNPP as substrate measured for 3 mins by colorimetric assay.

For experiment [7], the species on record is Homo sapiens. Nature of the experiment: Selectivity index, ratio of IC50 for SHP1 (unknown origin) to IC50 for SHP2 (unknown origin).
Experiment [8] concerns the target Tyrosine-protein phosphatase non-receptor type 6 (Homo sapiens, UniProt P29350). Nature of the experiment: Inhibition of SHP1 (unknown origin) using 3-o-methylfluorescein phosphate as substrate by fluorescence assay.

Sequence of Tyrosine-protein phosphatase non-receptor type 6 (P29350 whole entry): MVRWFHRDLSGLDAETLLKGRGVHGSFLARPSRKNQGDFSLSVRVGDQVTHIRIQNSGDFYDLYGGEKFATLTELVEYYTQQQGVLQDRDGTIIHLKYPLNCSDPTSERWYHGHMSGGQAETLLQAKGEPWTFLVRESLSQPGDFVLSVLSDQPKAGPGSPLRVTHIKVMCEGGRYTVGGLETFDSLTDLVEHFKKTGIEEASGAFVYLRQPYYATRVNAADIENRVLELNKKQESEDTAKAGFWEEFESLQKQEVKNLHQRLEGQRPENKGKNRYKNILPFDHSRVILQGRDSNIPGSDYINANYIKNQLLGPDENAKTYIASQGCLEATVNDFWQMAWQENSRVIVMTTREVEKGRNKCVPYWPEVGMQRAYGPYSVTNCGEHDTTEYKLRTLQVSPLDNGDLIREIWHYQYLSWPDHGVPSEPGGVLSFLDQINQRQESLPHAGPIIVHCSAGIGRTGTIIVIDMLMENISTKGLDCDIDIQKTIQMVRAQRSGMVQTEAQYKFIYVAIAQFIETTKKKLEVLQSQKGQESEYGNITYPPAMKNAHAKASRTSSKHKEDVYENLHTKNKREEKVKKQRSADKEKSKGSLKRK

As to `CCCNc1ccc2nsnc2c1`, the inhibition in experiment [1] and in experiment [2] was under 50% in each case.

On to `Nc1cc2nsnc2cc1C#CC1CC1`, for which the IC50 in experiment [3] came to 15.5 µM. In addition, in experiment [1], the inhibition is under 50%.

Regarding `CC(C)(C)C#Cc1cc2nsnc2cc1[N+](=O)[O-]`, the inhibition in experiment [1] and in experiment [2] was under 50% each time.

For the compound `c1ccc(CNc2ccc3nsnc3c2)cc1`, the IC50 in experiment [3] was 26.5 µM; in experiment [4], 42.1 µM.

Consider `Nc1cc2nsnc2cc1-c1ccccc1`, for which the inhibition in experiment [1] and in experiment [2] was under 50% in each case.

Regarding `c1cc2nsnc2cc1NCC1CCCCC1`, the inhibition in experiment [1] and in experiment [2] was under 50% each time.

`C#Cc1cc2nsnc2cc1[N+](=O)[O-]` came in with an IC50 in experiment [3] of 30 µM. The same compound returned an inhibition in experiment [1] of under 50%.

Consider `O=[N+]([O-])c1cc2nsnc2cc1C#Cc1ccccc1`, for which the inhibition in experiment [1] and in experiment [2] was under 50% in each case.

For `C[Si](C)(C)C#Cc1cc2nsnc2cc1[N+](=O)[O-]`, the inhibition in experiment [1] and in experiment [2] was under 50% each time.

Turning to `C[Si](C)(C)C#Cc1cc2nsnc2cc1N`, the inhibition in experiment [1] and in experiment [2] was under 50% each time.

Turning to `O=[N+]([O-])c1cc2nsnc2cc1C#CCCCCCl`, the inhibition in experiment [1] and in experiment [2] was under 50% throughout.

As to `c1csc(CNc2ccc3nsnc3c2)c1`, the IC50 was 23.9 µM in experiment [3] and 48.3 µM in experiment [4].

For `C#Cc1cc2nsnc2cc1N`, the IC50 in experiment [3] stood at 2.11 µM; in experiment [4] it was 50.2 µM; in experiment [8], 4.28 µM. The Ratio IC50 in the experiment listed under Homo sapiens [5] turned out to be 25; in the experiment listed under Homo sapiens [7] it was 2.02. Besides, the inhibition in experiment [6] was under 50%.

As to `c1coc(CNc2ccc3nsnc3c2)c1`, the inhibition in experiment [1] and in experiment [2] was under 50% in each case.

For `O=[N+]([O-])c1cc2nsnc2cc1C#CC1CC1`, the inhibition in experiment [1] and in experiment [2] was under 50% throughout.

For the compound `Nc1cc2nsnc2cc1C#Cc1ccccc1`, the IC50 came out at 14 µM in experiment [3] and 33.6 µM in experiment [4].

Consider `Nc1cc2nsnc2cc1C#CCCCCCl`, for which the results for the IC50 in experiment [3] and in experiment [4] were 5.81 µM and 38.2 µM, respectively.

For `O=[N+]([O-])c1cc2nsnc2cc1-c1ccccc1`, the inhibition in experiment [1] and in experiment [2] was under 50% each time.

As for `Nc1ccc2nsnc2c1`, the IC50 in experiment [3] is 39.1 µM. Also, the inhibition in experiment [1] was under 50%.

For the compound `Nc1cc2nsnc2cc1Br`, in experiment [3], the IC50 is 42.4 µM. Also, the inhibition in experiment [1] was under 50%.

In experiment [3], `CC(C)(C)C#Cc1cc2nsnc2cc1N` came in with an IC50 of 25.8 µM. The compound further returned an inhibition in experiment [1] of under 50%.

In experiment [3], `c1ccc(CNc2ccc3nsnc3c2)nc1` showed an IC50 of 30.6 µM. The compound also had an inhibition in experiment [1] of under 50%.

As usually defined, the inhibition is the relative decrease from the control value, in per cent. High values mean a strong effect, low ones a weak effect. For orientation: IC50 means the concentration that inhibits the measured activity by half. Low values mean higher potency, high ones lower potency.
